Earlier results on two compounds are cited in patent US12630509B2, “Heterocyclic NMDA antagonists” (TAKEDA PHARMACEUTICAL COMPANY LIMITED, priority 2019, dated 2026).

For series [1] the following is noted: in vivo; cited from earlier work.
For series [2] the following is noted: in vivo; cited from earlier work. The source holds these as a separate data set.

Turning to `CC(C(O)c1ccc(O)cc1)N1CCC(Cc2ccccc2)CC1` (centres unmarked) [Ifenprodil], the pain threshold value result in series [1] is on record as “increased”.
Turning to `CC12CC3CC(C)(C1)CC(N)(C3)C2` [memantine], in series [2], the “peripheral symptoms of dementia” value was “partially ameliorated”.
